The record followed here is ChEMBL document CHEMBL2331106, “Discovery of 5-phenoxy-1,3-dimethyl-1H-pyrazole-4-carboxamides as potent agonists of TGR5 via sequential combinatorial libraries” (Bioorg Med Chem Lett, 2013).

Series [1] can be described thus: Distribution coefficient, log D of the compound by shake flask method. It is filed as physicochemical. As to conditions: octanol/water.
Series [2] has as its target T1, G-protein coupled bile acid receptor 1 (Homo sapiens, UniProt Q8TDU6).
T1 sequence (Q8TDU6 whole entry): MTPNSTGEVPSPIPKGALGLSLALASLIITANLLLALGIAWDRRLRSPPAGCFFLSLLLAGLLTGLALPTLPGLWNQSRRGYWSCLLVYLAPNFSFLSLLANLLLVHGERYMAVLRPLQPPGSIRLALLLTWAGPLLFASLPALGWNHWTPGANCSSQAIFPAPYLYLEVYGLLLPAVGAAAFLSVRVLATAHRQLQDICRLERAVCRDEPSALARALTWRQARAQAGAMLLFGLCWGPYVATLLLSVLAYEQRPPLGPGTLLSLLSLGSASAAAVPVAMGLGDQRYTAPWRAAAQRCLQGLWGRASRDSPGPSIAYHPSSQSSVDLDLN
The series is described as follows: Agonist activity at human TGR5 receptor in CHO cells assessed as elevation of cAMP level by uninduced cAMP detection method in absence of doxycycline. Type of series: functional, cell-based. (cAMP levels reflect the balance of adenylyl cyclase and phosphodiesterase activity.)

Series [3] has as its target T1, G-protein coupled bile acid receptor 1. The series is described as follows: Agonist activity at doxycycline-promoter regulated overexpressed human TGR5 receptor in CHO cells assessed as elevation of cAMP level by induced-cAMP assay. It is filed as functional, cell-based.
The species named for series [4] is Homo sapiens. The series is described as follows: Ex vivo activation of TGR5 in human PBMC assessed as elevation of cAMP level by cAMP assay.
Series [5] can be described thus: Intrinsic clearance in human liver microsomes. It is filed as ADME, Microsome. As to conditions: read-out: CLH.

`Cc1nn(C)c(Oc2ccccc2)c1C(=O)N1CCCCC1c1cccnc1` (centres undefined): the logD – broadly, lipophilicity at a set pH, counting ionised and neutral species – in series [1] stood at 2.4. In addition, the EC50 (as a rule, the concentration giving half of the maximal effect) was greater than 10000 nM in series [2] and 920 nM in series [3].

Compound `Cc1nn(C)c(Oc2cccnc2)c1C(=O)N1CCCCC1c1cccnc1` (centres undefined) showed a logD in series [1] of 1.4. The EC50 in series [2] and in series [3] was greater than 10000 nM each time.

Take `Cc1nn(C)c(Oc2cccc(Cl)c2Cl)c1C(=O)N1CCCC[C@@H]1c1cccnc1`: the EC50 in series [4] worked out at 379 nM.

As to `Cc1ccc(N(C)C(=O)c2c(-c3ccccc3Cl)noc2C)cc1Cl`, the microsomal CLint in series [5] is greater than 320 µL/min/mg. The logD in series [1] came out at 3.6.
